Results from US12472214B2, “Bacterial strains, the compositions thereof and use thereof in a method for the treatment of vitamin D deficiency, and disorders associated therewith” (priority 2020, dated 2025).

Experiments:
[1] = In vivo murine study: 25(OH)D in serum by ELISA (bioavailability of vitamin D); design: species or system mice (Cd1); conditions: mice; one-week daily administration (groups 3, 5, 6)
Description: Mice (8-week old adult male Cd1) were enclosure-adapted and fed on a conventional diet. Mice were housed in cages and kept in a temperature-controlled environment (22±2° C.) with a 12-hour light/dark cycle with food for regular chow and tap water supplied ad libitum. After one week of acclimatisation, the animals were then randomly divided into 6 experimental groups of 6 mice each and each group was randomly assigned to one of the scheduled treatments (Table 1).
The strain Lactobacillus paracasei DG® CNCM I-1572 (in short, L paracasei DG®) was sub-cultured in MRS agar and a single colony was inoculated into culture broth and incubated for 18 hours at 37° C. under microaerophilic conditions. […] The optical density (OD 600 nm) was then measured and the suspension was diluted to OD=1.00. […] The decimal count of aliquots on selective medium allowed to quantify the live cell concentration equal to 1.6×10^9 CFU/ml of suspension (2.4×10^8 CFU/aliquot). […]
Mice were sacrificed 3 hours after the end of administration following fluorane anaesthesia and subsequent collection of blood by means of cardiac puncture and removal of the terminal ileum. […] The terminal ileum was first washed with PBS and then subjected to the collection of mucosa and the subsequent freezing in liquid nitrogen. mRNA was then extracted for the quantification of the expression of the vitamin D receptor at mucosal level. […]

vitamin D receptor VDR = assay: In vivo murine study: quantification of vitamin D receptor mRNA in ileal mucosa (quantitative PCR); design: species or system mice (Cd1); conditions: mice
Description: Mice were sacrificed 3 hours after the end of administration following fluorane anaesthesia and subsequent collection of blood by means of cardiac puncture and removal of the terminal ileum. The blood was centrifuged for the separation of serum which was then frozen until the subsequent dose of vitamin D3, in the form of 25-hydroxy-vitamin D (abbreviated as […] 25(OH)D). The terminal ileum was first washed with PBS and then subjected to the collection of mucosa and the subsequent freezing in liquid nitrogen. mRNA was then extracted for the quantification of the expression of the vitamin D receptor at mucosal level.
The terminal ileum was first washed with PBS and then subjected to the collection of mucosa and the subsequent freezing in liquid nitrogen. mRNA was then extracted for the quantification of the expression of the vitamin D receptor at mucosal level. From an operational point of view, total RNA extraction from the mucosa was performed first, then a 30 ng aliquot of total RNA was reverse transcribed to cDNA and then subjected to a quantitative PCR with primers for the vitamin D receptor VDR (described by Wu et al. 2010). Below is the summary of the sequence of primers: […]
RT-PCR analyses were also conducted using an “absolute” negative control and a housekeeping gene to normalise the results obtained (e.g. β-actin).

C=C1CC[C@H](O)C/C1=C/C=C1\CCC[C@]2(C)[C@@H]([C@H](C)CCCC(C)C)CC[C@@H]12 [vitamin D3, cholecalciferol]
change in serum levels of 25(OH)D versus treatment-free control group (statistical significance) [1]: did not generate any statistically significant change | vitamin D receptor mRNA expression level in ileal mucosa versus treatment-free control (vitamin D receptor VDR; one-week daily administration (groups 3, 5, 6)): even more marked decrease | vitamin D receptor mRNA expression level in ileal mucosa versus treatment-free control (vitamin D receptor VDR; vitamin D3 single dose (groups 2 and 4)): statistically significant decrease
